PMC2773443 (Biochemistry, 2009)

Tests used:
[1] = target: T1, Bh0493, uronate isomerase from Bacillus halodurans (Halalkalibacterium halodurans, UniProt Q9KFI6); test: X-ray crystal structure, […] Å; format: binding; conditions: Zn2+, active site; 40 mM ligand; pH 6.0
T1 sequence (Q9KFI6 1-427): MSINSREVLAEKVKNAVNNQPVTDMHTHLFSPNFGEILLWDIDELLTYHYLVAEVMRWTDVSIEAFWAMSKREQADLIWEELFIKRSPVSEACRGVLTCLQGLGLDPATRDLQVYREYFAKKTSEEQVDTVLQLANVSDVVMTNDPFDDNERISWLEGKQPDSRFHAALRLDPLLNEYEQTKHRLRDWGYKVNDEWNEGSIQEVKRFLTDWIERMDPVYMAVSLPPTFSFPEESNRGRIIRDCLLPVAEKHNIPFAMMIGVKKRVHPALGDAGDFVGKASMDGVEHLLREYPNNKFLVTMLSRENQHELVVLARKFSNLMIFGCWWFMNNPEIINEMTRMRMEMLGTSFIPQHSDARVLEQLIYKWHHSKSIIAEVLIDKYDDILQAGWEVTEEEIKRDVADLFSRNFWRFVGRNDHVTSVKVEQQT

[2] = target: T1, Bh0493, uronate isomerase from Bacillus halodurans; test: X-ray crystal structure, […] Å; format: binding; conditions: Zn2+, active site; 40 mM ligand; pH 8.5 (form 1), pH 6.0 (form 2)
[3] = target: T1, Bh0493, uronate isomerase from Bacillus halodurans; test: inhibition kinetics, slope inhibition constant; format: biochemical
[4] = target: T2, uronate isomerase (URI) from E. coli (Escherichia coli, UniProt P0A8G3); test: inhibition kinetics, slope inhibition constant; format: biochemical
T2 sequence (P0A8G3 1-470): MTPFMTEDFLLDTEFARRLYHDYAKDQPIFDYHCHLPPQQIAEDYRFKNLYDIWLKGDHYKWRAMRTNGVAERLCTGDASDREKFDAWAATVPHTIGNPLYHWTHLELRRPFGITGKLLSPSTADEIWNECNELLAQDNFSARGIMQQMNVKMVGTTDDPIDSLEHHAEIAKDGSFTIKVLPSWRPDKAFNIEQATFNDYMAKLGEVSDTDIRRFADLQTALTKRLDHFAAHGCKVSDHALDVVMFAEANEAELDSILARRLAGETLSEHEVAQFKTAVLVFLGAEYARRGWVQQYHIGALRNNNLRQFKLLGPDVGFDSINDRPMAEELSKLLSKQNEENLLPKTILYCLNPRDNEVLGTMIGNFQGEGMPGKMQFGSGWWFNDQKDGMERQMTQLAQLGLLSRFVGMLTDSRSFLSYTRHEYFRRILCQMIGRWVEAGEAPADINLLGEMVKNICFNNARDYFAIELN

O=C(O)[C@H]1OC(O)[C@H](O)[C@@H](O)[C@@H]1O (stereo partly drawn) [I, D-glucuronate]
X-ray crystal structure, 2.1 Å [1]: In the complex with D-glucuronate, the substrate is bound in the open chain configuration.

O=C(O)[C@@H](O)C(O)[C@H](O)C(=O)O [III, D-arabinarate]
X-ray crystal structure, 2.2 Å (two crystal forms) [2]: two inhibitors that mimic the proposed cis-enediol(ate) intermediate, D-arabinarate (III) and its hydroxamate derivative (II)

O=C(O)[C@H]1OC[C@H](O)[C@@H](O)[C@@H]1O [IV, 2,6-Anhydro-L-gulonic acid]
Ki [3]: 24 ± 2 µM
Ki [4]: 45 ± 4 µM
